According to patent publication US20180021277A1, “ANTI-VIRULENCE COMPOSITIONS AND METHODS” (priority 2012, published 2018):
Positions count from the first letter of the chain named. Where “and” joins values, the source holds several entries; their conditions need not be identical. Identical values can stand only once.

What was measured:
[1] = target: T1, C-terminal DNA-binding domain (AgrA_C) of the Staphylococcus aureus response regulator AgrA (Staphylococcus aureus, UniProt P0A0I7); experiment: Microscale thermophoresis binding to AgrA_C; details: listed as F19, read-out: Kd / affinity to AgrA_C
T1 sequence (P0A0I7 143-238): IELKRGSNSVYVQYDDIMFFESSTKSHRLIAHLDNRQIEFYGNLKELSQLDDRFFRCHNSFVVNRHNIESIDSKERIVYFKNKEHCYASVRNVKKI
Procedure: (§1) The AgrA C proteins from S. aureus and S. epidermidis were fluorescently labeled with Alexa Fluor 647 NHS ester and purified on Zeba spin columns. Compound F19 was diluted as a gradient through the capillaries while protein concentrations were maintained constant. Measurements were performed on a Nanotemper Monolith NT.115 apparatus. Lysozyme and known inhibitor N,N′,N″-triacetylchitotriose (Fisher Scientific) were used as controls.

[2] = tested on: Bacillus cereus; experiment: Host cell damage assay (LDH leakage), Bacillus cereus; format: cell-based; details: THP-1 human monocytes
Procedure: (§2) Damage to host cells was measured by leakage of lactate dehydrogenase (LDH) with the CytoTox 96 Non-Radioactive Cytotoxicity LDH Assay Promega Kits G178 and G1782 according to manufacturer's instructions.
(§3) Overnight cultures of the bacterial strain to be tested were spun down, washed, diluted 1:4 and incubated with broth containing 10-50 μg/ml of F19 or containing 2% DMSO as control. The bacteria were cultured at 37° C., in a shaking incubator for 6 h at which time 20 μL of bacterial culture was added to 5×10^4 THP-1 monocytes or J774.2 macrophages in 100 μL of cell media (DMEM for J774.2 cells and RPMI for THP-1 cells) in 96 well plates. Bacteria and macrophage/monocytes were incubated together for 40 min at 37° C. Plates were then spun at 250 g for 4 min and 50 μL of the supernatant was removed to a new 96 well plate. 50 μL of substrate mix+assay buffer were added and incubated at room temperature for 10-30 min depending upon the rate of product formation and stopped by addition of 50 μL stop solution. The colorometric products were read at 490 nm on a Victor 3 plate reader. The data presented are from experiments performed in triplicate.
(§4) Gram-positive pathogens compromise host cell defense factors by puncturing membranes of immune system cells. To examine F19 efficacy in preventing host cell damage by various pathogens cell lysis assays were carried out by measuring leakage of lactate dehydrogenase (LDH) from cells. F19 indeed inhibits pathogen-mediated lysis of human THP-1 monocytes and mouse macrophage cell line J7774.2 by a series of Gram-positive pathogens, including MRSA, MRSE, Streptococcus pyogenes, Streptococcus pneumoniae and Bacillus cereus in a dose dependent manner (Table 2 for MRSA, Table 4 for other pathogens).

[3] = target: T2, AgrA_C from Staphylococcus epidermidis (Staphylococcus epidermidis, UniProt Q5HMY2); experiment: Microscale thermophoresis binding to AgrA_C from S. epidermidis; details: compared with S. aureus AgrA_C; data not shown
T2 sequence (Q5HMY2 143-238 limits assumed): T1 sequence (P0A0I7 143-238) with S48A, D52E, V63I, K83G, H85N, Y87F
Procedure: as §1

[4] = target: T3, AgrA_C from S. epidermidis / P3 DNA (Staphylococcus epidermidis, UniProt Q5HMY2); experiment: Electrophoretic mobility shift assay of AgrA_C from S. epidermidis with P3 DNA; format: binding; details: 1 nM P3 DNA, 1 μM AgrA_C, increasing F19, 1% DMSO
T3 sequence (Q5HMY2 143-238): T1 sequence (P0A0I7 143-238) with S48A, D52E, V63I, K83G, H85N, Y87F
Procedure: FIG. 8 illustrates Electrophoretic mobility shift assay of AgrA_C from S. epidermidis as a function of F19 concentration. […] P3 DNA was radiolabeled with 32P. The concentrations of P3 DNA and AgrA_C were 1 nM and 1 μM, respectively. F19 was titrated in at increasing concentrations while maintaining a constant concentration of 1% DMSO.

[5] = tested on: MRSA; experiment: CFU counts of F19 treated vs. untreated MRSA cultures (serial dilution-plating); format: cell-based, Staphylococcus aureus
[6] = tested on: Strepococcus pyogenes AC7; experiment: Host cell damage assay (LDH leakage), Streptococcus pyogenes; format: cell-based; details: THP-1 human monocytes
Procedure: as §2
as §3, with “Overnight cultures of the bacterial strain to be tested were spun down, washed, diluted 1:4 and incubated with broth containing 10-50 μg/ml of F19 or containing 2% DMSO as control.” left out
as §4

[7] = tested on: MRSE Q-15; experiment: Biofilm measurement (crystal violet), MRSE; format: cell-based, Staphylococcus epidermidis; details: control = 100
Procedure: Bacterial cells were grown in Luria Broth overnight and an OD600 of 0.5 corresponding to 10^6 cfu/mL. 200 μL of this bacterial culture was plated with the presence of compound at various concentrations. Biofilm was allowed to form by placing the plate at 37° C. in the incubator without shaking. The plate was then washed 2× with water while being careful not to disturb the biofilm. Water was aspirated out and the plate was baked dry in a 60° C. incubator for 2 h. 125 μL of a 0.06% crystal violet solution ([…] in H2O) was added to each well and allowed to sit at room temperature for 15 minutes. […] The plate was inverted on a paper towel to dry overnight.125 μL of 30% acetic acid was added to each well and was left at room temperature for 15 minutes. The wells were mixed by pipetting and the solution was transferred to a clean 96-well plate and read at OD595.

[8] = tested on: MRSE Q-15; experiment: RT-qPCR of virulence gene transcription in MRSE; details: 50 μg/mL F19
[9] = tested on: MRSE Q-15; experiment: Host cell damage assay (LDH leakage), MRSE; format: cell-based, Staphylococcus epidermidis; details: for % Damage (LDH Leakage): THP-1 human monocytes; for Damage (%): Table 2, control = 100
Procedure: as §2
as §3, with “Overnight cultures of the bacterial strain to be tested were spun down, washed, diluted 1:4 and incubated with broth containing 10-50 μg/ml of F19 or containing 2% DMSO as control.” left out
as §4

SMILES: CCCCCCc1cc(C(=O)COc2ccc(C(C)C)cc2)c(O)cc1O [4f-19]
- Kd [1]: 2.9 µM and 4.5 µM
- % Damage (LDH Leakage) ([2]; F19 30 μg/mL): 63.7 ± 1.3%
- % Damage (LDH Leakage) ([2]; F19 40 μg/mL): 52.0 ± 0.1%
- % Damage (LDH Leakage) ([2]; F19 50 μg/mL): 69.7 ± 1.2%
- affinity to AgrA_C from Staphylococcus epidermidis [3]: Statistically identical affinity
- formation of the protein-nucleic acid complex (EMSA) [4]: prevent the formation of the protein—nucleic acid complex
- CFU counts, F19 treated vs. untreated cultures [5]: identical CFU counts
- % Damage (LDH Leakage) ([6]; F19 5 μg/mL): 97.4 ± 0.7%
- % Damage (LDH Leakage) ([6]; F19 10 μg/mL): 88.4 ± 1.9%
- % Damage (LDH Leakage) ([6]; F19 20 μg/mL): 73.6 ± 0.5%
- % Damage (LDH Leakage) ([6]; F19 30 μg/mL): 56.2 ± 3.4%
- % Damage (LDH Leakage) ([6]; F19 40 μg/mL): 38.7 ± 1.8%
- Biofilm (%) ([7]; F19 1 μg/ml): 92.2 ± 9.8%
- Biofilm (%) ([7]; F19 10 μg/ml): 69.3 ± 10.7%
- Biofilm (%) ([7]; F19 50 μg/ml): 34.1 ± 9.8%
- inhibition of AtlE transcription [8]: 1910 fold
- inhibition of psm-α transcription [8]: 5043 fold
- % Damage (LDH Leakage) ([9]; F19 1 μg/mL): 85.5 ± 2.6%
- % Damage (LDH Leakage) ([9]; F19 5 μg/mL): 62.6 ± 1.1%
- % Damage (LDH Leakage) ([9]; F19 10 μg/mL): 48.1 ± 1.1%
- % Damage (LDH Leakage) ([9]; F19 20 μg/mL): 26.5 ± 0.5%
- % Damage (LDH Leakage) ([9]; F19 30 μg/mL): 22.1 ± 0.6%
- % Damage (LDH Leakage) ([9]; F19 40 μg/mL): 19.6 ± 1.1%
- Damage (%) ([9]; F19 1 μg/ml): 85.5 ± 2.6%
- Damage (%) ([9]; F19 10 μg/ml): 48.1 ± 1.1%
- Damage (%) ([9]; F19 50 μg/ml): 15.7 ± 0.5%
